Where “and” joins values, the source holds several entries; their conditions need not be identical. Identical values can stand only once. Records with an inconclusive call do not appear.
Test system: BDF1 mice, colon carcinoma 38 sc, T/C %
Experiment: NCI In Vivo Anticancer Drug Screen. Data for tumor model Colon Carcinoma 38 (subcutaneous) in B6D2F1 (BDF1) mice
Summary of the method: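 Compound antitumor activity was assessed in mice carrying transplantable tumors. Survival or tumor size was recorded, and each value is the treated-group measurement divided by that of the vehicle-treated control group.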

[1] = endpoint: median tumor weight (est.), dose: 12.5 mg/kg/injection, schedule: Q07DX002 (ip), vehicle: Klucel (hydroxypropylcellulose) (HPC), higher = larger tumour
[2] = endpoint: median tumor weight (est.), dose: 25.0 mg/kg/injection, schedule: Q07DX002 (ip), vehicle: Klucel (hydroxypropylcellulose) (HPC), higher = larger tumour
[3] = endpoint: median tumor weight (est.), dose: 50.0 mg/kg/injection, schedule: Q07DX002 (ip), vehicle: Klucel (hydroxypropylcellulose) (HPC), higher = larger tumour
[4] = endpoint: median tumor weight (est.), dose: 100.0 mg/kg/injection, schedule: Q07DX002 (ip), vehicle: saline, higher = larger tumour
[5] = endpoint: median tumor weight (est.), dose: 25.0 mg/kg/injection, schedule: Q07DX002 (ip), vehicle: saline with Tween-80, higher = larger tumour
[6] = endpoint: median tumor weight (est.), dose: 50.0 mg/kg/injection, schedule: Q07DX002 (ip), vehicle: saline with Tween-80, higher = larger tumour

SMILES: CCCCCCCCCCCCCCCCCC(=O)OCC(=O)OCC(=O)[C@]1(O)Cc2c(O)c3c(c(O)c2[C@@H](OC2CC(N)C(O)C(C)O2)C1)C(=O)c1c(OC)cccc1C3=O (some centres undefined)
- T/C (endpoint: median survival time, dose: 11.5 mg/kg/injection, schedule: Q07DX002 (iv), vehicle: saline, higher = longer survival): 111 % of control
- T/C (endpoint: median tumor weight (est.), dose: 1.69 mg/kg/injection, schedule: Q07DX002 (ip), vehicle: saline with Tween-80, higher = larger tumour): 70 % of control
- T/C (endpoint: median tumor weight (est.), dose: 3.38 mg/kg/injection, schedule: Q07DX002 (ip), vehicle: saline with Tween-80, higher = larger tumour): 93 % of control
- T/C (endpoint: median tumor weight (est.), dose: 6.75 mg/kg/injection, schedule: Q07DX002 (ip), vehicle: saline with Tween-80, higher = larger tumour): 79 % of control and 89 % of control and 97 % of control
- T/C (endpoint: median tumor weight (est.), dose: 27.0 mg/kg/injection, schedule: Q07DX002 (ip), vehicle: saline with Tween-80, higher = larger tumour): 18 % of control and 37 % of control

SMILES: CC(=O)OCC(=O)[C@@]12OC(C)(C)O[C@@H]1C[C@H]1[C@@H]3CC(C=O)=C4C=C(OCCCl)CC[C@]4(C)[C@@]3(F)[C@@H](O)C[C@@]12C
- T/C [1]: 86 % of control
- T/C (endpoint: median tumor weight (est.), dose: 12.5 mg/kg/injection, schedule: Q07DX003 (ip), vehicle: Klucel (hydroxypropylcellulose) (HPC), higher = larger tumour): 62 % of control and 76 % of control
- T/C [2]: 58 % of control
- T/C (endpoint: median tumor weight (est.), dose: 25.0 mg/kg/injection, schedule: Q07DX003 (ip), vehicle: Klucel (hydroxypropylcellulose) (HPC), higher = larger tumour): 33 % of control and 57 % of control
- T/C [3]: 86 % of control
- T/C (endpoint: median tumor weight (est.), dose: 100.0 mg/kg/injection, schedule: Q07DX002 (ip), vehicle: Klucel (hydroxypropylcellulose) (HPC), higher = larger tumour): 94 % of control
- T/C (endpoint: median tumor weight (est.), dose: 100.0 mg/kg/injection, schedule: Q07DX003 (ip), vehicle: Klucel (hydroxypropylcellulose) (HPC), higher = larger tumour): 57 % of control
- T/C (endpoint: median tumor weight (est.), dose: 200.0 mg/kg/injection, schedule: Q07DX002 (ip), vehicle: Klucel (hydroxypropylcellulose) (HPC), higher = larger tumour): 54 % of control
- T/C (endpoint: median tumor weight (est.), dose: 200.0 mg/kg/injection, schedule: Q07DX003 (ip), vehicle: Klucel (hydroxypropylcellulose) (HPC), higher = larger tumour): 48 % of control

SMILES: O=[N+]([O-])c1nccn1CC(O)CO (centres undefined)
- T/C [4]: 120 % of control
- T/C (endpoint: median tumor weight (est.), dose: 800.0 mg/kg/injection, schedule: Q07DX002 (ip), vehicle: saline, higher = larger tumour): 105 % of control

SMILES: CCCCOCN(COCCCC)C(C)Cc1ccccc1 (centres undefined)
- T/C [5]: 85 % of control and 106 % of control
- T/C [6]: 120 % of control and 99 % of control

SMILES: CN(C)CC(Cl)CCl (centres undefined)
- T/C (endpoint: median tumor weight (est.), dose: 12.5 mg/kg/injection, schedule: Q07DX002 (ip), vehicle: saline, higher = larger tumour): 118 % of control
- T/C (endpoint: median tumor weight (est.), dose: 25.0 mg/kg/injection, schedule: Q07DX002 (ip), vehicle: saline, higher = larger tumour): 105 % of control
- T/C [4]: 115 % of control
- T/C (endpoint: median tumor weight (est.), dose: 200.0 mg/kg/injection, schedule: Q07DX002 (ip), vehicle: saline, higher = larger tumour): 118 % of control
- T/C (endpoint: median tumor weight (est.), dose: 400.0 mg/kg/injection, schedule: Q07DX002 (ip), vehicle: saline, higher = larger tumour): 88 % of control

SMILES: NC(=O)C#CC(N)=O
- T/C (endpoint: median tumor weight (est.), dose: 0.12 mg/kg/injection, schedule: Q07DX002 (ip), vehicle: Klucel (hydroxypropylcellulose) (HPC), higher = larger tumour): 88 % of control
- T/C (endpoint: median tumor weight (est.), dose: 0.23 mg/kg/injection, schedule: Q07DX002 (ip), vehicle: Klucel (hydroxypropylcellulose) (HPC), higher = larger tumour): 97 % of control
- T/C (endpoint: median tumor weight (est.), dose: 0.45 mg/kg/injection, schedule: Q07DX002 (ip), vehicle: Klucel (hydroxypropylcellulose) (HPC), higher = larger tumour): 85 % of control
- T/C (endpoint: median tumor weight (est.), dose: 0.9 mg/kg/injection, schedule: Q07DX002 (ip), vehicle: Klucel (hydroxypropylcellulose) (HPC), higher = larger tumour): 91 % of control

SMILES: C=Cc1cnc([N+](=O)[O-])n1C
- T/C [1]: 67 % of control and 84 % of control
- T/C [2]: 109 % of control and 97 % of control
- T/C [3]: 62 % of control and 69 % of control

SMILES: Nc1nc2c(C(=O)N3CCCC3)nnn2c2ccccc12
- T/C (endpoint: median tumor weight (est.), dose: 12.5 mg/kg/injection, schedule: Q07DX002 (ip), vehicle: saline with Tween-80, higher = larger tumour): 98 % of control
- T/C [5]: 105 % of control
- T/C [6]: 100 % of control
- T/C (endpoint: median tumor weight (est.), dose: 100.0 mg/kg/injection, schedule: Q07DX002 (ip), vehicle: saline with Tween-80, higher = larger tumour): 116 % of control

SMILES: NC(Cc1ccc(N(CCCl)Cc2ccccc2)cc1)C(=O)O (centres undefined)
- T/C (endpoint: median tumor weight (est.), dose: 3.12 mg/kg/injection, schedule: Q07DX002 (ip), vehicle: distilled water + Tween-80, higher = larger tumour): 69 % of control and 90 % of control
- T/C (endpoint: median tumor weight (est.), dose: 6.25 mg/kg/injection, schedule: Q07DX002 (ip), vehicle: distilled water + Tween-80, higher = larger tumour): 108 % of control
- T/C (endpoint: median tumor weight (est.), dose: 12.5 mg/kg/injection, schedule: Q07DX002 (ip), vehicle: distilled water + Tween-80, higher = larger tumour): 51 % of control and 70 % of control
- T/C (endpoint: median tumor weight (est.), dose: 25.0 mg/kg/injection, schedule: Q07DX002 (ip), vehicle: distilled water + Tween-80, higher = larger tumour): 109 % of control and 108 % of control
- T/C (endpoint: median tumor weight (est.), dose: 50.0 mg/kg/injection, schedule: Q07DX002 (ip), vehicle: distilled water + Tween-80, higher = larger tumour): 72 % of control and 92 % of control

Reference: PubChem BioAssay AID212 (DTP/NCI, 2004)
